Earlier results in US20080057002A1, “Non-aqueous compositions containing urea and allantoin and methods for preparing same” (priority 2006, published 2008).

Settings: expressed in g/100 g solvent @25 degree. C.

Question: Which results are given for `NC(=O)NC1NC(=O)NC1=O` (stereo not drawn) [allantoin, (2,5-dioxo-4-imidazolidinyl) urea]?
Answer: solubility of allantoin in ethanol (ethanol): < 0.1%; solubility of allantoin in propylene glycol (propylene glycol): < 0.1%; solubility of allantoin in water (water): 0.45%
